Laboratory results published in patent US7772183B2 (Bristol-Myers Squibb Company, priority 2005, dated 2010).
Like-named read-outs stand apart in the source and are kept apart here.

How the values were obtained:
[1] = target: T1, HCV NS3/4A protease complex, BMS strain (UniProt P27958, species not given/STRAIN_BMS); assay: FRET peptide assay to monitor HCV NS3/4A proteolytic activity (BMS strain); format: biochemical, Hepatitis C virus (genotype 1a)
T1 construct: said of H77 and J4L6S; fused on or other part: A three-lysine solubilising tail at the C-terminus of NS4A and a His tag (pET21b, Ni-NTA purification)
Method in brief: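 Recombinant NS3/4A complexes (aa 1027–1711) from H77 (1a) and J4L6S (1b) carried a three-lysine tail, C1711G and C1454S. They were expressed in E. coli BL21(DE3) (0.5 mM IPTG, 22 h, 20 °C), then purified by Ni-NTA and Superdex-S200 to >90% purity. The BMS strain was a genotype 1a clone from patient serum.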

[2] = tested on: human pancreatic chymotrypsin; assay: Specificity assay, chymotrypsin; format: biochemical; conditions: read-out: Chymotrypsin activity in the specificity assays
Description: The specificities of compounds of the present disclosure were determined against a variety of serine proteases: human neutrophil elastase (HNE), porcine pancreatic elastase (PPE) and human pancreatic chymotrypsin and one cysteine protease: human liver cathepsin B. In all cases, a 96-well plate format protocol using colorimetric p-nitroaniline (pNA) substrate or fluorometric Amino-Methyl-Coumarin (AMC) substrate, specific for each enzyme was used as described previously (PCT Patent Application No. WO 00/09543) with some modifications. All enzymes were purchased from Sigma or EMDbiosciences while the substrates were from Bachem.
Each pNA assay included a 2 h enzyme-inhibitor pre-incubation at room temperature followed by addition of substrate and hydrolysis to ˜15% conversion as measured on a Spectramax Pro microplate reader. The cathepsin B assay was initiated by adding substrate to a 10 min enzyme-inhibitor pre-incubation at room temperature, and the assay plate measured immediately using the Cytofluor Series 4000. Compound concentrations varied from 100 to 0.4 μM depending on their potency.
The final conditions for each assay were as follows: […]
The percentage of inhibition was calculated using the formula: [1−((UVinh−UVblank)/(UVctl−UVblank))]×100 […]

T1 sequence (P27958 1027-1657, change not shown, one chain of several): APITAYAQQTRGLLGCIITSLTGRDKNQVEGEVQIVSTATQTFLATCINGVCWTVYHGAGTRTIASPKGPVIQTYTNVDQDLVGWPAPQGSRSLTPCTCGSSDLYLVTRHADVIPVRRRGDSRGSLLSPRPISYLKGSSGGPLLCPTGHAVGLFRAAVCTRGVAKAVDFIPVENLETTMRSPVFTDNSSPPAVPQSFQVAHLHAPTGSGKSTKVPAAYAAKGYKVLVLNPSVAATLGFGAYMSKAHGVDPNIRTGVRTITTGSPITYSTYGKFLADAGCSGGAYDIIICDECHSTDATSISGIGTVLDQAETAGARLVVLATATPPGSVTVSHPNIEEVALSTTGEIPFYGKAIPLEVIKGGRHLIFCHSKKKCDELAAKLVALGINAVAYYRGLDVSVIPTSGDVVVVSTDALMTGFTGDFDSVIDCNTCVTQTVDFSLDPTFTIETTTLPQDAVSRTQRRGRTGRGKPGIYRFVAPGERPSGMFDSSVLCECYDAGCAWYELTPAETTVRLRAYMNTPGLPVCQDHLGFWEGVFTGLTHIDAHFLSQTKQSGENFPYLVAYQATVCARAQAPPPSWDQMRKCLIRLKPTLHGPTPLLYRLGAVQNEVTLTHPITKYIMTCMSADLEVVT

What does the source list for `CC(C)(C)OC(=O)N[C@H]1CCCCC/C=C\[C@@H]2C[C@@]2(C(=O)NS(=O)(=O)C2CC2)NC(=O)[C@@H]2C[C@@H](OC(=O)c3ccc(C#N)cc3)CN2C1=O` [Compound 26, 18-(4-cyanobenzoyloxy)-14-tert-butoxycarbonylamino-4-cyclopropylsulfonylaminocarbonyl-2,15-dioxo-3,16-diazatricyclo-[14.3.0.0^4,6]-nonadec-7-ene]?
IC50 ([1]; BMS strain, read-out: IC50 against the NS3/4A BMS strain in the enzyme assay): 0.78 nM; IC50 ([1]; NS3/4A BMS strain, read-out: IC50 Range): < 100 nM; IC50 [2]: > 100000 nM
